Where a name gives a salt, the structure may show the parent alone. Read-outs that look alike come from different tables or passages of the source.
How the values were obtained:
[1] = system: CLL cells; assay: Cytotoxicity of NOS inhibitors for CLL cells in vitro (MTS assay); details: for EC50: read-out: Mean ED50 ± S.E.M. (CLL cell cytotoxicity)
Source text: We worked to optimize the culture of CLL cells (Reference 86). […] These were all tested with and without albumin, fetal bovine serum, human serum, glutamine, insulin, transferrin, selenium, and mercaptoethanol.
Toxicity could be detected by disappearance of cells from the culture (reduction in overall cell number), uptake of trypan blue, propidium iodide uptake (flow cytometry), MTS (4,5-dimethylthiazol-2-yl)-5-(3-carboxymethoxyphenyl)-2-(4-sulfophenyl)-2H-tetrazolium, inner salt) assay (cellular respiration), and several parameters of apoptosis [annexin V assay, DNA content […], and TUNEL assay].

[2] = system: CLL cell caspase-3; assay: CLL cell caspase-3 enzyme activity after culture with AR-R17477; type: cell-based, human; details: for Mean caspase-3 activity: 4 h culture, N = 3
[3] = system: CLL cells; assay: CLL cell apoptosis by Annexin V binding; type: cell-based, human
Experimental: Annexin V binding to CLL cells increased after CLL cell co-culture for 2-6 h.

[4] = target: T1, purified human NOS1 (Homo sapiens, UniProt P29475); assay: Inhibition of purified NOS1 enzyme activity; type: biochemical; details: mean ± SEM, N = 3
T1 construct: determined using purified recombinant full-length human NOS1 and NOS2
Experimental: (§1) The NOS1 and NOS2 IC50's and Kd's for each NOS inhibitor were determined using purified recombinant full-length human NOS1 and NOS2. The cLogP value for each NOS inhibitor was determined using the CLOGP computer program (BioByte, Claremont, Calif.). […] Linear regression was used to examine the correlation between the IC50, Kd and cLogP values and ED50 values.
(§2) We determined the dissociation constant for NOS inhibitor binding (Kd) to purified recombinant and NOS2.

[5] = target: T2, purified human NOS2 (Homo sapiens, UniProt P35228); assay: Inhibition of purified NOS2 enzyme activity; type: biochemical; details: mean ± SEM, N = 3
T2 construct: determined using purified recombinant full-length human NOS1 and NOS2
Experimental: as §1, §2

[6] = system: freshly-isolated CLL cells; assay: Exogenous NO donors and drugs on freshly-isolated CLL cells (apoptosis and death); type: cell-based, human; details: for NO / DETA-NO interaction with the agent's activity on CLL cells: combination of the agent with NO donor
Source text: We next wanted to examine CLL cells. These malignant cells differ in many ways from ANLL and normal hematopoietic. In addition to their different lineage, they are unique in that they have a very low […], exist primary in the G0 phase of the cell cycle, and have defective apoptosis.

[7] = target: T3, purified recombinant rat NOS1 oxygenase domain (Rattus norvegicus, UniProt P29476); assay: NOS inhibitor binding (Kd) to NOS1
T3 construct: purified recombinant rat NOS1 oxygenase domain

[8] = target: T4, purified recombinant human NOS2 oxygenase domain (Homo sapiens, UniProt P35228); assay: NOS inhibitor binding (Kd) to NOS2
T4 construct: purified recombinant human NOS2 oxygenase domain
Experimental: […] The cLogP value for each NOS inhibitor was determined using the CLOGP computer program (BioByte, Claremont, Calif.). […] Linear regression was used to examine the correlation between the IC50, Kd and cLogP values and ED50 values.
as §2

[9] = system: HL-60 and U937 cells; assay: NO donor inhibition of leukemia cell and colony growth; type: cell-based, human
Source text: To more closely examine the mechanism of toxicity for myeloid leukemia cells, we did work to determine whether the rate of NO delivery affected its growth inhibition of acute nonlymphocytic leukemia cells. We also wanted to determine whether the NO inhibition of cell growth is associated induction of apoptosis. We treated HL-60 and U937 cells with three compounds that generate the same amount of NO but different rates. […] Furthermore, NO-induced growth inhibition was associated with apoptosis in a rate and concentration-dependent fashion (Reference 39).

[10] = system: HL-60 myeloblastic leukemia cells; assay: NO drugs on growth of HL-60 myeloblastic leukemia cells; type: cell-based, human; details: NO delivered from the drug
Source text: While studying NO and macrophages progressed in the late 1980s, we hypothesized that NO produced in the BM (bone marrow) would be a modulator of normal and leukemic hematopoiesis. […] The differentiated cells were vacuolated, and had increased expression of nonspecific esterase, CD11b, and CD14.

[11] = system: normal human BM cells; assay: NO drugs on colony formation of normal human BM cells; type: cell-based; details: for Development of marrow colonies: methylcellulose with erythropoietin and colony stimulating factors
Experimental: The effects of NO on the growth and differentiation of normal human BM cells were analyzed (Reference 85). We felt that normal hematopoietic cells, like malignant hematopoietic cells, would be affected by NO. […] NO reduced formation of BFU-E (burst forming unit-erythroid), CFU-E, CFU-GM (colony forming unit-granulocyte/macrophage), and CFU-M (colony forming unit-macrophage). […] In retrospect, we think that the increase in CFU-GM by NO from SNP may be due to alterations in apoptosis secondary to changes in bcl-2 or caspases. None of the noted inhibitions were related to cGMP (cyclic-guanosine monophosphate).

[12] = 50 mg/kg in mice; cited from earlier work
[13] = MTS assay, CLL cell samples from different subjects

T4 sequence (P35228 1-504 limits assumed): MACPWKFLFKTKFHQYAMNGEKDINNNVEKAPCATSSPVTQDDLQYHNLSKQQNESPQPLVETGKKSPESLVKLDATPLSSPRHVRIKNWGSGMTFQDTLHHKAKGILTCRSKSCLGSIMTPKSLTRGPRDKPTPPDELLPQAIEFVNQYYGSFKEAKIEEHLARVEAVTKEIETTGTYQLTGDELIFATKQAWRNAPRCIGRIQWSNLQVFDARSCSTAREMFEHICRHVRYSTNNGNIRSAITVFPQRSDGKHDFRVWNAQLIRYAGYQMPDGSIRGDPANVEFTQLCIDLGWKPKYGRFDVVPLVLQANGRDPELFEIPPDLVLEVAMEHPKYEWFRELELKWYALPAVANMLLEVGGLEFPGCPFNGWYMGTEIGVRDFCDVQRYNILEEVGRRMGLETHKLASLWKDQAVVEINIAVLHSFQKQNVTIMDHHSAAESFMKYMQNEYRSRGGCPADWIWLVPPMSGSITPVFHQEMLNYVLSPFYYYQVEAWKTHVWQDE
T1 sequence (P29475 whole entry): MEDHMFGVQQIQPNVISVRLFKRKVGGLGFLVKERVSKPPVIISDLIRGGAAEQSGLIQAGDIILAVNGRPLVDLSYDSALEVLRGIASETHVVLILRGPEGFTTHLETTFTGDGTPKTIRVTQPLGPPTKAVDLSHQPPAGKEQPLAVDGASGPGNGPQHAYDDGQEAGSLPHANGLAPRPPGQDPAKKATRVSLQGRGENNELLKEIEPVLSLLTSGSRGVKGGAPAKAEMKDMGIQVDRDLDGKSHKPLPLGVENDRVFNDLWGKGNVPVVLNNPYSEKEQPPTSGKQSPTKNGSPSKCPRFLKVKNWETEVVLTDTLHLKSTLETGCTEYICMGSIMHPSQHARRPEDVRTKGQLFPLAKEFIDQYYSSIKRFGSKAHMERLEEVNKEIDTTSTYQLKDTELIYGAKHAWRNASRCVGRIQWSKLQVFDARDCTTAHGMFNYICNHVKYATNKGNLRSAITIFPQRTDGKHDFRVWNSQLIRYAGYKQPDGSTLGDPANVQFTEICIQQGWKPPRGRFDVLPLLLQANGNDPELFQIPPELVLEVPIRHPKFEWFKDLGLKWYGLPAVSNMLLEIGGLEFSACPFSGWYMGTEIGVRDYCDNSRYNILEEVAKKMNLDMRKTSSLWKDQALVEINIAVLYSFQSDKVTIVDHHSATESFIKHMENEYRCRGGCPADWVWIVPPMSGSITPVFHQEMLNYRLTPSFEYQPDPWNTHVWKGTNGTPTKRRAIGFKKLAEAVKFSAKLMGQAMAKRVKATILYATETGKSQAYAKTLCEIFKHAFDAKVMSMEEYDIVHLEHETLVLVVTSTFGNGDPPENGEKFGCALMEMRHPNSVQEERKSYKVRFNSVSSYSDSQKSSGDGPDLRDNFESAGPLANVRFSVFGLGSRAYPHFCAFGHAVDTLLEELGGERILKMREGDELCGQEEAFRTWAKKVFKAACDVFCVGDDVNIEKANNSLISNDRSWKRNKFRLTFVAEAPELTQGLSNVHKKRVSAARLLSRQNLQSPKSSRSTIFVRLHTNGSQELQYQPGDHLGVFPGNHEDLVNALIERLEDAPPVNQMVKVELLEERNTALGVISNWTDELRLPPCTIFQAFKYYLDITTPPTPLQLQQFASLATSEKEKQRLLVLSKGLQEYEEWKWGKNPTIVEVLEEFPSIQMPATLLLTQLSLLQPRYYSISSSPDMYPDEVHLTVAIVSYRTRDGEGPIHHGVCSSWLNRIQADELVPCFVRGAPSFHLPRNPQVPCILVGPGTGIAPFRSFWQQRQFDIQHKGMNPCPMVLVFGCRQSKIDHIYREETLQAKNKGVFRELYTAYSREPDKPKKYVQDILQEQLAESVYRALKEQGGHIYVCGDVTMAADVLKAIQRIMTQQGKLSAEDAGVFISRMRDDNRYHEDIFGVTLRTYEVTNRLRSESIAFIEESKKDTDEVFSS
T2 sequence (P35228 whole entry): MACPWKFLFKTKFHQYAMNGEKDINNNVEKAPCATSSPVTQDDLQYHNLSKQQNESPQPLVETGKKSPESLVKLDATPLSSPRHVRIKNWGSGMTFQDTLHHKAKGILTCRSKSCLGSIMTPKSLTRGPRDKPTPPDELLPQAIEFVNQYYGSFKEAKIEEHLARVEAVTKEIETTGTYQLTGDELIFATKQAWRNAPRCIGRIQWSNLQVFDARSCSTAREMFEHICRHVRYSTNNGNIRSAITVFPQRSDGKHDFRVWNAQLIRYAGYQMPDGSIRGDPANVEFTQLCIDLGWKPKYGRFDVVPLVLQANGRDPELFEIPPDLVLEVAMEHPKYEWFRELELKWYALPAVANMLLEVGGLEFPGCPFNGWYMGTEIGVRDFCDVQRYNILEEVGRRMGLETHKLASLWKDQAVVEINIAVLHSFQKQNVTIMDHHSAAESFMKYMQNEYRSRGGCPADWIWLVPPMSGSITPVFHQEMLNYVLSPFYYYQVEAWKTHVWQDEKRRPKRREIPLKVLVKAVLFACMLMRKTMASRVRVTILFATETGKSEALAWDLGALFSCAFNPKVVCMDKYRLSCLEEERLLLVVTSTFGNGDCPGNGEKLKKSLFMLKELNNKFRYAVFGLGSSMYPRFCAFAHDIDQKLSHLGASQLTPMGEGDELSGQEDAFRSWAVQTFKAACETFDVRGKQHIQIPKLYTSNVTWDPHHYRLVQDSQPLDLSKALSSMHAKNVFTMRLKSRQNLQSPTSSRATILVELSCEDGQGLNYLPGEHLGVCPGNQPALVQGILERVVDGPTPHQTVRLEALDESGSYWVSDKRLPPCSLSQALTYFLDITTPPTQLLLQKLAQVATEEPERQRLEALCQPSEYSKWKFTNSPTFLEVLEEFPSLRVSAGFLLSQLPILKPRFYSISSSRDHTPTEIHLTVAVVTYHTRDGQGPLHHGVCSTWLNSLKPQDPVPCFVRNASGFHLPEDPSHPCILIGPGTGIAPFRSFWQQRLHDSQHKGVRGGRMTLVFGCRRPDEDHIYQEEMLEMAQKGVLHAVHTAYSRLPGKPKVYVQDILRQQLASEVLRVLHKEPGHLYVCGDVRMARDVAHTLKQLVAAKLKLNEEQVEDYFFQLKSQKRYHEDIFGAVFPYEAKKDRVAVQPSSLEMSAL
T3 sequence (P29476 1-720 limits assumed): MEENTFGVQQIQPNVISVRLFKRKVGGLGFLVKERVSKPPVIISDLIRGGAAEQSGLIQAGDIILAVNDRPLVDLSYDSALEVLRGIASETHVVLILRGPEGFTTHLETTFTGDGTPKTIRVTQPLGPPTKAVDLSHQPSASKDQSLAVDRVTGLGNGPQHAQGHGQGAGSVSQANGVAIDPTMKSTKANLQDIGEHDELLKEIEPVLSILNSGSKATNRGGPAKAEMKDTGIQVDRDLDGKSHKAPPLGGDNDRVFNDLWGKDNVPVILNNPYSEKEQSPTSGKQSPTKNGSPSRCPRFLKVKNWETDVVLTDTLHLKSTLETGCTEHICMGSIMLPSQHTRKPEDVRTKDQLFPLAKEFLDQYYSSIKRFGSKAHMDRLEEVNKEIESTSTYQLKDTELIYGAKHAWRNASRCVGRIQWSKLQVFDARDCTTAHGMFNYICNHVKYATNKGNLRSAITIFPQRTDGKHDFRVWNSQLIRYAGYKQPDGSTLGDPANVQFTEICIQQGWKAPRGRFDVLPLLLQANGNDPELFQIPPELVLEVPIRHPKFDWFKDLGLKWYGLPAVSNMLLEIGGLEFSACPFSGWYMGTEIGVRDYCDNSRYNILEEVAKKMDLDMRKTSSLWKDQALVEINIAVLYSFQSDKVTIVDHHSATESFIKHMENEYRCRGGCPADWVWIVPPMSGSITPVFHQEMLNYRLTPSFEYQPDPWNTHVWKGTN

With Cl.Cl.N=C(Nc1ccc(CCNCc2cccc(Cl)c2)cc1)c1cccs1 [AR-R17477, N-(4-(2-((3-Chlorophenylmethyl)amino)ethyl)phenyl)-2-thiophecarboxamidine dihydrochloride] the “ED50 ranking, FIG. 10” value ([1]; cytotoxicity for CLL cells in vitro) was “lowest ED50”, the EC50 [1, 13] was 7 ± 0.7 µM and the “Mean caspase-3 activity” value ([2]; 5 μM) was 9741 arbitrary fluorescence units. The “Mean caspase-3 activity” value ([2]; 10 μM) was 7474 arbitrary fluorescence units, the “Mean caspase-3 activity” value ([2]; 20 μM) was 8074 arbitrary fluorescence units and the “CLL cell caspase-3 enzyme activity (time course)” value ([2]; co-culture for 4 to 19 h) was “increased”. For the same molecule, the “CLL cell caspase-3 enzyme activity (concentration dependence)” value ([2]; various concentrations, 4 h) was “dose-dependent increase”, the CLL cell apoptosis [3] was “induced CLL cell apoptosis” and the “Annexin V binding to CLL cells” value ([3]; co-culture for 2-6 h) was “increased”.
Work on CCSC(=N)N [S-Ethyl ITU, S-Ethylisothiourea HBr] yielded an IC50 [4] of 7.7 ± 1.8 µM and an IC50 [5] of 1200 ± 290 µM.
With Nc1ccn([C@@H]2O[C@H](CO)[C@@H](O)C2(F)F)c(=O)n1 [gemcitabine] the “NO / DETA-NO interaction with the agent's activity on CLL cells” value (from here on “NO / DETA-NO interaction”) [6] was “did not enhance the activity”.
CCSC(=N)Nc1ccc(C(F)(F)F)cc1 [ETPI, S-Ethyl-N-[4-(trifluoromethyl)phenyl]isothiourea HCl] showed an EC50 ([1]; Homo sapiens, CLL cell) of 129 ± 20 µM, an IC50 [4] of 7.8 ± 2.5 µM and an IC50 [5] of 1500 ± 240 µM. The Kd [7] was 0.1 µM and the Kd [8] was 0.5 µM.
For NCCNCCN [DETA], the “Effect on CLL cell apoptosis and death” value [6] was “had no effects”.
With COc1cccc2c1C(=O)c1c(O)c3c(c(O)c1C2=O)C[C@@](O)(C(=O)CO)C[C@@H]3O[C@H]1C[C@H](N)[C@H](O)[C@H](C)O1 [doxorubicin] the “NO / DETA-NO interaction” value [6] was “did not enhance the activity”.
With NCCN(CCN)/[N+]([O-])=N/O [DETA-NO, (Z)-1-[N-(2-aminoethyl)-N-(2-ammonioethyl)amino]diazen-1-ium-1,2-diolate-NO] the “Inhibition of leukemia cell and colony growth” value [9] was “most potent inhibitor” and the “Interaction of DETA-NO with fludarabine in killing CLL cells” value ([6]; combination with fludarabine) was “acted synergistically”.
In the case of [NH-]c1c[n+](N2CCOCC2)no1 [SIN-1], the “Growth of HL-60 cells” value [10] is reported as “potently inhibited the growth” and the “Development of marrow colonies” value [11] is reported as “inhibited development of marrow colonies”.
In the case of O=C(O)CCCc1ccc(N(CCCl)CCCl)cc1 [chlorambucil], the “NO / DETA-NO interaction” value [6] is reported as “did not enhance the activity”.
For S-nitrosoacetylpenicillamine [SNAP], the “Growth of HL-60 cells” value [10] was “potently inhibited the growth”, the “Erythroid and myeloid colonies” value ([11]; isolated CD34+ cells) was “inhibited” and the “Development of marrow colonies” value [11] was “inhibited development of marrow colonies”.
In the case of COc1nc(N)nc2c1ncn2[C@@H]1O[C@H](CO)[C@@H](O)[C@@H]1O [506U78, 2-amino-9-β-D-6-methoxy araguanine], the “NO / DETA-NO interaction” value [6] is reported as “synergized”.
In the case of O=[N+]([O-])c1cccc2c(Br)n[nH]c12 [3-Bromo-7-NI, 3-Bromo-7-nitroindazole], the EC50 ([1]; Homo sapiens, CLL cell) is reported as 225 ± 20 µM.
N=C(N)SCCc1cccc(CCSC(=N)N)c1 [1,3 PB-ITU, S,S′-(1,3-Phenylene-bis(1,2-ethanediyl))bis-isothiourea 2HBr] showed an EC50 ([1]; Homo sapiens, CLL cell) of 293 ± 26.5 µM, an IC50 [4] of 4.7 ± 0.8 µM and an IC50 [5] of 1.6 ± 0.3 µM.
Work on COC(=O)[C@@H](N)CCCNC(N)=N[N+](=O)[O-] [L-NAME, N^G-Nitro-L-arginine-methyl ester HCl] yielded an EC50 ([1]; Homo sapiens, CLL cell) of 7220 ± 1300 µM, an IC50 [4] of 0.89 ± 0.06 µM and an IC50 [5] of 17 ± 1.5 µM. For the same molecule, the Kd [7] was 0.5 µM and the Kd [8] was 0.6 µM.
In the case of FC(F)(F)c1ccccc1-n1ccnc1 [TRIM, 1-(2-Trifluoromethylphenyl)imidazole], the EC50 ([1]; Homo sapiens, CLL cell) is listed as 421 ± 61 µM, the “Effect on anxiety and depression” value [12] is listed as “effective at reducing anxiety and depression” and the Side effects [12] is listed as “mild motor incoordination”.
In the case of CC(=N)NCCSCC[C@H](N)C(=O)O [GW274150, (S)-2-Amino-(1-iminoethylamino)-5-thioheptanoic acid], the IC50 [4] is reported as 140 ± 15 µM and the IC50 [5] is reported as 1.8 ± 0.3 µM.
For CC1CCN=C(N)S1 (stereo not shown) [AMT, 2-Amino-5,6-dihydro-6-methyl-4H-1.3-thiazine HCl], the IC50 [4] was 0.092 ± 0.002 µM and the IC50 [5] was 0.054 ± 0.001 µM.
In the case of N=C(NCCC[C@H](N)CNCCN)N[N+](=O)[O-] [NAAANG, (4S)-N-(4-Amino-5[aminoethyl]aminopentyl)-N′-nitroguanidine 3TFA], the EC50 ([1]; Homo sapiens, CLL cell) is reported as 5230 ± 3200 µM.
N=C(N)NCCSSCCNC(=N)N [GED, Guanidinoethyldisulfide 2H2CO3] showed an EC50 ([1]; Homo sapiens, CLL cell) of 317 ± 77 µM, an IC50 [4] of 280 ± 80 µM and an IC50 [5] of 50 ± 9.5 µM.
CSC(=N)N [S-Methyl ITU, S-methylisothiourea sulfate] gave an EC50 [1, 13] of 3080 ± 423 µM.
CCCNC(=N)NCCC[C@H](N)C(=O)O [N-Propyl-L-arginine, N^5-[Imino(propylamino)methyl]-L-ornithine] showed an IC50 [5] of 146 ± 36 µM and a Kd [8] of 7 µM.
With CCc1c2c(nc3ccc(O)cc13)-c1cc3c(c(=O)n1C2)COC(=O)[C@]3(O)CC [SN-38] the “NO / DETA-NO interaction” value [6] was “did not enhance the activity”.
In the case of CC1(C)N([O])C(c2ccc(C(=O)O)cc2)=[N+]([O-])C1(C)C [carboxy-PTIO], the “Cytotoxicity for CLL cells (in words)” value [1] is reported as “not cytotoxic”.
For “Mercaptoethylguanidine sodium succinate [MEG]”, the EC50 [1, 13] was 181 ± 36.4 µM.
For C/C1=C2/[N-][C@H]([C@H](CC(N)=O)[C@@]2(C)CCC(=O)NC[C@@H](C)OP(=O)([O-])O[C@H]2[C@@H](O)[C@@H](n3cnc4cc(C)c(C)cc43)O[C@@H]2CO)[C@]2(C)N=C(/C(C)=C3N=C(/C=C4N=C1[C@@H](CCC(N)=O)C\4(C)C)[C@@H](CCC(N)=O)[C@]\3(C)CC(N)=O)[C@@H](CCC(N)=O)[C@]2(C)CC(N)=O.[Co+3].[OH-] [hydroxycobalamin], the “Cytotoxicity for CLL cells (in words)” value [1] was “not cytotoxic”.
N=C(N)SCCc1ccc(CCSC(=N)N)cc1 [1,4 PB-ITU, S,S′-(1,4-Phenylene-bis(1,2-ethanediyl))bis-isothiourea 2HBr] showed an EC50 ([1]; Homo sapiens, CLL cell) of 321 ± 38.9 µM.
For O=c1[nH]cc(F)c(=O)[nH]1 [5-fluorouracil], the “NO / DETA-NO interaction” value [6] was “did not enhance the activity”.
N=C(N)SCCCN [S-Aminopropyl ITU, S-(3-Aminopropyl)isothiourea 2HBr] showed an EC50 ([1]; Homo sapiens, CLL cell) of 112 ± 45.5 µM, an IC50 [4] of 3.8 ± 0.5 µM and an IC50 [5] of 1.9 ± 0.2 µM.
O=[N+]([O-])c1cccc2cn[nH]c12 [7-NI, 7-Nitroindazole] gave an EC50 ([1]; Homo sapiens, CLL cell) of 200 ± 29 µM, an IC50 [4] of 72 ± 16 µM and an IC50 [5] of 45 ± 5.9 µM. For the same molecule, the “Effect on anxiety and depression” value [12] was “effective at reducing anxiety and depression” and the Side effects [12] was “mild motor incoordination”.
CC(=N)NCCCC[C@H](N)C(=O)O [L-NIL, L-N^6-(1-Iminoethyl)-lysine] gave an IC50 [4] of 47 ± 1.2 µM, an IC50 [5] of 2.1 µM and a Kd [7] of 0.7 µM. For the same molecule, the Kd [8] was 0.5 µM.
In the case of CC(=N)NCc1cccc(CN)c1 [1400W, N-(3-(Aminomethyl)benzyl)acetamidine 2HCl], the EC50 ([1]; Homo sapiens, CLL cell) is reported as 8240 ± 1880 µM.

— US20090186929A1, “Method and agent for inducing apoptosis/cell death in leukemia cells” (U.S. DEPARTMENT OF VETERANS AFFAIRS, priority 2003, published 2009)
